{"source": "patent US20220168392A1", "about": "(priority 2019, published 2022)", "key": {"Mice, ear vein": {"tested_on": "Mice, ear vein", "test": "Ear vein model in mice (Table 6)", "assay_type": "in vivo, mouse", "conditions": "0.3 mg/kg, whole wrapped cell: Reduced white cell adhesion to endothelium and vascular permeability"}, "healthy men": {"tested_on": "healthy men", "test": "Study NAP1001: single IV dose in healthy men (platelet counts, safety)", "assay_type": "in vivo, human", "design": "key to pharmacodynamics (PD) effect class of the dose (beneficial effects on survival): **: large pharmacodynamics (PD) effect; *: modest effect", "conditions": "for Humans Max Platelet Ratio: NAP 1001", "method": "In the FIH, single dose, Phase 1 clinical study NAP1001, 40 healthy men were enrolled, and 30 subjects received a single IV dose of RWJ-800088 as a 5-mg/mL solution in saline (dose range 0.375 to 3 μg/kg); 10 subjects received placebo. […] Thirty-three (83%) of 40 subjects reported at least 1 treatment-emergent adverse event throughout the study. Similar proportions of subjects reported treatment-emergent adverse events following administration of placebo (9 [90%] of 10 subjects) and RWJ-800088 (24 [80%] of 30 subjects). […] Mean platelet counts increased with increasing RWJ-800088 dose compared with placebo from Day 6 onwards, peaking at Days 10 to 12 before gradually returning to baseline by Day 21 (FIG. 19).\nThe ratio of the maximum platelet counts to the baseline platelet counts following single escalating doses of RWJ-800088 to mice, rats, dogs, rhesus monkeys and human healthy volunteers is shown in Table 5. The dose required to achieve a 2-3.5-fold elevation in humans is ˜100-fold lower compared to mice, ˜1,000-fold lower compared to rats and >10,000-fold lower compared to canines and NHPs. […] The species differences in potency has been described for other TPO mimetics in the literature and is attributed to differences in receptor affinity (Erickson-Miller C L, et al. Discovery and characterization of a selective, nonpeptidyl thrombopoietin receptor agonist. Exp. Hematol. 2005; 33:85-93). […] It is discovered that the dose of RWJ-800088 that produces a survival benefit and protects against vascular and organ injury is the dose that produces a 2-4 fold elevation of platelets (Table 6)."}, "[1]": {"tested_on": "CD2F1 male mice exposed to TBI", "test": "30-day survival after total body irradiation (TBI) in CD2F1 mice", "assay_type": "in vivo, mouse", "conditions": "for Survival Differential (Treatment-Vehicle) / Survival treatment: CD2F1 M"}, "[2]": {"conditions": "9.25 Gy, 0.3 mg/kg single dose, Post 4 hr"}, "[3]": {"conditions": "9.25 Gy, 0.3 mg/kg single dose, Pre −24 hr"}, "[4]": {"conditions": "9.3 Gy, 0.3 mg/kg single dose, Post 24 hr"}, "[5]": {"conditions": "9.3 Gy, 1 mg/kg single dose, Post 24 hr"}, "[6]": {"conditions": "9.35 Gy, 0.1 mg/kg single dose, Post 24 hr"}, "[7]": {"conditions": "9.35 Gy, 0.3 mg/kg single dose, Post 24 hr, listed as TPOm, 0.3 mg/kg"}, "[8]": {"conditions": "9.35 Gy, 0.3 mg/kg, 2 doses 12 hours apart, Post, first dose 24 hr"}, "[9]": {"conditions": "9.35 Gy, 0.3 mg/kg, 3 doses 8 hours apart, Post, first dose 24 hr"}, "[10]": {"conditions": "9.35 Gy, 1 mg/kg single dose, Post 24 hr"}, "[11]": {"conditions": "9.35 Gy, 2 mg/kg single dose, Post 24 hr"}, "[12]": {"conditions": "9.35 Gy, 3 mg/kg single dose, Post 24 hr"}, "[13]": {"conditions": "9.75 Gy, 0.1 mg/kg single dose, Post 4 hr"}, "[14]": {"conditions": "9.75 Gy, 0.1 mg/kg single dose, Pre −24 hr"}, "[15]": {"conditions": "9.75 Gy, 0.3 mg/kg single dose, Post 4 hr"}, "[16]": {"conditions": "9.75 Gy, 0.3 mg/kg single dose, Pre −2 hr"}, "[17]": {"conditions": "9.75 Gy, 0.3 mg/kg single dose, Pre −12 hr"}, "[18]": {"conditions": "9.75 Gy, 0.3 mg/kg single dose, Pre −24 hr, listed as TPOm, 0.3 mg/kg"}, "[19]": {"conditions": "9.75 Gy, 1 mg/kg single dose, Post 4 hr, listed as TPOm, 1 mg/kg"}, "[20]": {"conditions": "9.75 Gy, 1 mg/kg single dose, Post 8 hr"}, "[21]": {"conditions": "9.75 Gy, 1 mg/kg single dose, Post 12 hr"}, "[22]": {"conditions": "9.75 Gy, 1 mg/kg single dose, Pre −24 hr"}}, "note": "Where “and” joins values, the source holds several entries; their conditions need not be identical. Identical values can stand only once. Square brackets hold non-standard residues; d marks the D form. * marks the point of attachment. 2Nal = N[C@@H](Cc1ccc2ccccc2c1)C(=O)O; Propionyl = CCC(=O)*; Sar = CNCC(=O)O"}
{"substance": "methoxypolyethyleneglycol20000-propionyl-L-Isoleucyl-L-Glutamyl-Glycyl-L-Prolyl-L-Threonyl-L-Leucyl-L-Arginyl-L-Glutaminyl-L-2-Naphthylalanyl-L-Leucyl-L-Alanyl-L-Alanyl-L-Arginyl-Sarcosyl-Ne-(methoxypolyethyleneglycol20000-propionyl-L-Isoleucyl-L-Glutamyl-Glycyl-L-Prolyl-L-Threonyl-L-Leucyl-L-Arginyl-L-Glutaminyl-L-2-Naphthylalanyl-L-Leucyl-L-Alanyl-L-Alanyl-L-Arginyl-Sarcosyl-)-Lysinamide ({mPEG 20 kDa-Propionyl}-IEGPTLRQ[2Nal]LAAR[Sar]K-NH2; also: dimer: second identical mPEG-propionyl chain on Lys Nε of C-terminal lysinamide) [RWJ-800088]", "values": [{"measurement": "Effects", "setting": "Mice, ear vein", "result": "Reduced white cell"}, {"measurement": "subjects reporting treatment-emergent adverse events", "setting": "healthy men; 24 of 30 subjects, single IV dose 0.375 to 3 μg/kg", "result": 80, "unit": "%"}, {"measurement": "Average of the Maximum Platelet Elevation/Baseline Platelet Counts", "setting": "healthy men; Human, dose 3 μg/kg", "result": 3.3}, {"measurement": "Dose for 2.0-4x Platelet Elevation in Healthy Subjects", "setting": "healthy men; Humans", "result": "≥2.25", "unit": "µg/kg"}, {"measurement": "pharmacodynamics (PD) effect class of the dose (beneficial effects on survival)", "setting": "healthy men; Humans, dose 2.25 μg/kg", "result": "**"}, {"measurement": "pharmacodynamics (PD) effect class of the dose (beneficial effects on survival)", "setting": "healthy men; Humans, dose 3 μg/kg", "result": "**"}, {"measurement": "Humans Max Platelet Ratio", "setting": "healthy men; dose 0.375 μg/kg", "result": "1.4 ± 0.3"}, {"measurement": "Humans Max Platelet Ratio", "setting": "healthy men; dose 0.75 μg/kg", "result": "1.8 ± 0.4"}, {"measurement": "Humans Max Platelet Ratio", "setting": "healthy men; dose 1.5 μg/kg", "result": "1.9 ± 0.7"}, {"measurement": "Humans Max Platelet Ratio", "setting": "healthy men; dose 2.25 μg/kg", "result": "2.1 ± 0.8"}, {"measurement": "Humans Max Platelet Ratio", "setting": "healthy men; dose 3 μg/kg", "result": "3.1 ± 1.1"}, {"measurement": "enhancement of platelets over background", "setting": "healthy men; humans, 3 μg/kg (FIG. 19)", "result": 3.5, "unit": "fold"}, {"measurement": "incidence of adverse events, dose relation", "setting": "healthy men; single IV dose 0.375 to 3 μg/kg", "result": "not dose related"}, {"measurement": "tolerability", "setting": "healthy men; single IV doses up to and including 3 μg/kg, healthy men", "result": "well tolerated"}, {"measurement": "dose dependence of survival", "setting": "[1]; CD2F1, 24 hours post-TBI (9.3 Gy), doses 0.1 to 3 mg/kg (FIG. 12A)", "result": "increase in survival from 0.1 to 1 mg/kg and then a slight reduction in the survival benefit at 2 and 3 mg/kg"}, {"measurement": "Survival Differential (Treatment-Vehicle)", "setting": "[1]; [2]", "result": 53, "unit": "%"}, {"measurement": "Survival treatment", "setting": "[1]; [2]", "result": 88, "unit": "%"}, {"measurement": "Survival Differential (Treatment-Vehicle)", "setting": "[1]; [3]", "result": 41, "unit": "%"}, {"measurement": "Survival treatment", "setting": "[1]; [3]", "result": 83, "unit": "%"}, {"measurement": "Survival Differential (Treatment-Vehicle)", "setting": "[1]; [4]", "result": 42, "unit": "%"}, {"measurement": "Survival treatment", "setting": "[1]; [4]", "result": 71, "unit": "%"}, {"measurement": "Survival Differential (Treatment-Vehicle)", "setting": "[1]; [5]", "result": 50, "unit": "%"}, {"measurement": "Survival treatment", "setting": "[1]; [5]", "result": 79, "unit": "%"}, {"measurement": "Survival Differential (Treatment-Vehicle)", "setting": "[1]; [6]", "result": 25, "unit": "%"}, {"measurement": "Survival treatment", "setting": "[1]; [6]", "result": 58, "unit": "%"}, {"measurement": "Survival treatment", "setting": "[1]; 9.35 Gy, 0.3 mg/kg single dose, Post 24 hr, 0.3 mg/kg", "result": 71, "unit": "%"}, {"measurement": "Survival Differential (Treatment-Vehicle)", "setting": "[1]; [7]", "result": "25% and 17%"}, {"measurement": "Survival treatment", "setting": "[1]; [7]", "result": "58% and 71%"}, {"measurement": "Survival Differential (Treatment-Vehicle)", "setting": "[1]; [8]", "result": 21, "unit": "%"}, {"measurement": "Survival treatment", "setting": "[1]; [8]", "result": 54, "unit": "%"}, {"measurement": "Survival Differential (Treatment-Vehicle)", "setting": "[1]; [9]", "result": 8, "unit": "%"}, {"measurement": "Survival treatment", "setting": "[1]; [9]", "result": 50, "unit": "%"}, {"measurement": "Survival Differential (Treatment-Vehicle)", "setting": "[1]; [10]", "result": 29, "unit": "%"}, {"measurement": "Survival treatment", "setting": "[1]; [10]", "result": 63, "unit": "%"}, {"measurement": "Survival Differential (Treatment-Vehicle)", "setting": "[1]; [11]", "result": 17, "unit": "%"}, {"measurement": "Survival treatment", "setting": "[1]; [11]", "result": 50, "unit": "%"}, {"measurement": "Survival Differential (Treatment-Vehicle)", "setting": "[1]; [12]", "result": 13, "unit": "%"}, {"measurement": "Survival treatment", "setting": "[1]; [12]", "result": 46, "unit": "%"}, {"measurement": "Survival Differential (Treatment-Vehicle)", "setting": "[1]; [13]", "result": 21, "unit": "%"}, {"measurement": "Survival treatment", "setting": "[1]; [13]", "result": 42, "unit": "%"}, {"measurement": "Survival Differential (Treatment-Vehicle)", "setting": "[1]; [14]", "result": 92, "unit": "%"}, {"measurement": "Survival treatment", "setting": "[1]; [14]", "result": 92, "unit": "%"}, {"measurement": "Survival Differential (Treatment-Vehicle)", "setting": "[1]; [15]", "result": 42, "unit": "%"}, {"measurement": "Survival treatment", "setting": "[1]; [15]", "result": 63, "unit": "%"}, {"measurement": "Survival Differential (Treatment-Vehicle)", "setting": "[1]; [16]", "result": 58, "unit": "%"}, {"measurement": "Survival treatment", "setting": "[1]; [16]", "result": 92, "unit": "%"}, {"measurement": "Survival Differential (Treatment-Vehicle)", "setting": "[1]; [17]", "result": 96, "unit": "%"}, {"measurement": "Survival treatment", "setting": "[1]; [17]", "result": 100, "unit": "%"}, {"measurement": "Survival Differential (Treatment-Vehicle)", "setting": "[1]; [18]", "result": "92% and 96%"}, {"measurement": "Survival treatment", "setting": "[1]; [18]", "result": "92% and 100%"}, {"measurement": "Survival Differential (Treatment-Vehicle)", "setting": "[1]; [19]", "result": "67% and 60%"}, {"measurement": "Survival treatment", "setting": "[1]; [19]", "result": "88% and 80%"}, {"measurement": "Survival Differential (Treatment-Vehicle)", "setting": "[1]; [20]", "result": 80, "unit": "%"}, {"measurement": "Survival treatment", "setting": "[1]; [20]", "result": 90, "unit": "%"}, {"measurement": "Survival Differential (Treatment-Vehicle)", "setting": "[1]; [21]", "result": 50, "unit": "%"}, {"measurement": "Survival treatment", "setting": "[1]; [21]", "result": 70, "unit": "%"}, {"measurement": "Survival Differential (Treatment-Vehicle)", "setting": "[1]; [22]", "result": 92, "unit": "%"}, {"measurement": "Survival treatment", "setting": "[1]; [22]", "result": 92, "unit": "%"}]}
